Measured values reported in US10028992B2, “Methods of treating muscular dystrophy” (BOARD OF REGENTS OF THE NEVADA SYSTEM OF HIGHER EDUCATION …, priority 2012, dated 2018).

Tested on: α7 integrin promoter
Experiment: muscle cell-based assay: α7βgal+/− myoblasts/myotubes, LacZ reporter, β-galactosidase cleavage of FDG
Design: species or system mouse; Results in α7+/− β-galactosidase assay: scale not given here
Settings: for Results in a α7+/− β-galactosidase assay, Myotubes, 0.5 uM: compound at 0.5 uM; for Results in a α7+/− β-galactosidase assay, Myotubes, 1 uM: compound at 1 uM; for Results in a α7+/− β-galactosidase assay, Myotubes, 5 uM: compound at 5 uM; for Results in a α7+/− β-galactosidase assay, Myotubes, 10 uM: compound at 10 uM; for Results in a α7+/− β-galactosidase assay, Myotubes, 20 uM: compound at 20 uM; for Results in a α7+/− β-galactosidase assay, Myotubes, 40 uM: compound at 40 uM; for AC50: log of AC50, given with negative sign, unit of AC50 not given, read-out: Fit Log AC50 (converted); for Fit Curve Class: key not given; for Results in α7+/− β-galactosidase assay: Myoblasts; for EC50: given as log AC50 (negative values), read-out: Fit LogAC50 (converted)
Summary of the method: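 Fluorescein generated from FDG by β-galactosidase reports α7 integrin promoter activity in differentiated myoblasts from α7+/− LacZ knock-in pups. Screening hits then went to dose-response, western blotting and a myostatin counterscreen.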

[1] = Table 12, fitted activity at zero concentration
[2] = Table 12 Compound data, concentration-response curve fit
[3] = curve fit, activity at zero concentration

With `CN1C(=O)N(CC(=O)N2CCN(S(=O)(=O)c3ccc(Cl)s3)CC2)C(=O)C12CCCCC2` [drawing 493] the “Results in a α7+/− β-galactosidase assay, Myotubes, 0.5 uM” value (from here on “Results … 0.5 uM”) was 0.02298, the “Results in a α7+/− β-galactosidase assay, Myotubes, 1 uM” value (from here on “Results … 1 uM”) was 0.1534 and the “Results in a α7+/− β-galactosidase assay, Myotubes, 5 uM” value (“Results … Myotubes, 5 uM” below) was −0.342. The “Results in a α7+/− β-galactosidase assay, Myotubes, 10 uM” value (shortened to “Results … 10 uM”) was 0.1222, the “Results in a α7+/− β-galactosidase assay, Myotubes, 20 uM” value (from here on “Results … 20 uM”) was −0.2548 and the “Results in a α7+/− β-galactosidase assay, Myotubes, 40 uM” value (“Results … 40 uM” for short) was −0.1971.
`O=C(NC1CCCC1)c1ccc(CS(=O)(=O)Cc2ccccc2F)o1` [Compound 7] was tested, and the AC50 (Mus musculus, Table 12) was 4.47 µM, the Emax (Mus musculus, read-out: Max Response [%]) was 105% and the “Fit HillSlope” value (Table 12, curve fit) was 1.6924. For the same compound, the “Fit Zero Activity [%]” value [1] was 12.5%, the “Fit Curve Class” value (Table 12) was 1.1 and the Score [2] was 85.
With `CCCS(=O)(=O)c1nc(S(=O)(=O)c2ccc(C)cc2)c(N2CCCC2)s1` [drawing 572] the “Results in α7+/− β-galactosidase assay” value (0.5 uM) was 0.06463, the “Results in α7+/− β-galactosidase assay” value (1 uM) was 0.01847 and the “Results in α7+/− β-galactosidase assay” value (5 uM) was −0.2102. For the same compound, the “Results in α7+/− β-galactosidase assay” value (10 uM) was −0.5196, the “Results in α7+/− β-galactosidase assay” value (20 uM) was −0.8221 and the “Results in α7+/− β-galactosidase assay” value (40 uM) was −0.878.
In the case of `O=C(NCc1ccccc1)c1csc(-c2cccnc2)n1` [drawing 452], the “Results … 0.5 uM” value is reported as −0.05273, the “Results … 1 uM” value is reported as −0.1614 and the “Results … Myotubes, 5 uM” value is reported as 0.1395. The “Results … 10 uM” value was 0.1693, the “Results … 20 uM” value was 0.05975 and the “Results … 40 uM” value was −0.1073.
In the case of `CNc1nnc(SCC(=O)c2cc(C)n(C3CC3)c2C)s1` [Compound 68], the AC50 (Mus musculus, Table 12) is reported as 12.6 µM, the “Fit HillSlope” value (Table 12, curve fit) is reported as 4.5045 and the “Fit Zero Activity [%]” value [1] is reported as −17.9914%. The “Fit Curve Class” value (Table 12) was 2.1 and the Score [2] was 44.
In the case of `c1ccc(-c2cc(-c3nc4ccccc4[nH]3)c3ccccc3n2)cc1` [drawing 640], the “Results in α7+/− β-galactosidase assay” value (0.5 uM) is reported as 0.2113, the “Results in α7+/− β-galactosidase assay” value (1 uM) is reported as 0.0679 and the “Results in α7+/− β-galactosidase assay” value (5 uM) is reported as −0.00848. For the same compound, the “Results in α7+/− β-galactosidase assay” value (10 uM) was −0.0409, the “Results in α7+/− β-galactosidase assay” value (20 uM) was 0.08704 and the “Results in α7+/− β-galactosidase assay” value (40 uM) was −0.1752.
In the case of `O=C1Nc2ccccc2/C1=C/c1ccccc1F` [drawing 383], the “Results … 0.5 uM” value is reported as −0.06236, the “Results … 1 uM” value is reported as −0.04077 and the “Results … Myotubes, 5 uM” value is reported as −0.1089. For the same compound, the “Results … 10 uM” value was 0.02646, the “Results … 20 uM” value was −0.3381 and the “Results … 40 uM” value was −0.4226.
With `N#Cc1ccc(OCC(O)CS(=O)(=O)c2ccccc2)cc1` (centres unmarked) [Compound 195] the EC50 (Mus musculus) was 10 µM, the Score (Table 12 compound data) was 42 and the “Fit Curve Class” value (curve class number) was 2.1. The “Fit HillSlope” value (curve fit) was 4.045 and the “Fit Zero Activity [%]” value [3] was −9.8792%.
With `Nc1nccc(-c2ccc(-n3cnc4ccccc43)cc2)n1` [Compound 192] the EC50 (Mus musculus) was 11.2 µM, the Score (Table 12 compound data) was 42 and the “Fit Curve Class” value (curve class number) was 2.2. For the same compound, the “Fit HillSlope” value (curve fit) was 4.095 and the “Fit Zero Activity [%]” value [3] was 2.4789%.
With `COc1cccc(C(=O)COc2ccc3ccc(=O)oc3c2)c1` [drawing 363] the “Results … 0.5 uM” value was 0.3069, the “Results … 1 uM” value was 0.2317 and the “Results … Myotubes, 5 uM” value was 0.07669. For the same compound, the “Results … 10 uM” value was 0.03997, the “Results … 20 uM” value was −0.3325 and the “Results … 40 uM” value was −0.3127.
For `COc1ccc(C(=O)/C=C2\C(=O)Nc3ccccc32)cc1OC` [drawing 628], the “Results in α7+/− β-galactosidase assay” value (0.5 uM) was 0.07545, the “Results in α7+/− β-galactosidase assay” value (1 uM) was −0.02919 and the “Results in α7+/− β-galactosidase assay” value (5 uM) was 0.1241. The “Results in α7+/− β-galactosidase assay” value (10 uM) was 0.1545, the “Results in α7+/− β-galactosidase assay” value (20 uM) was −0.335 and the “Results in α7+/− β-galactosidase assay” value (40 uM) was −0.4748.
In the case of `NS(=O)(=O)c1ccc(NC(=O)c2ccc(CNS(=O)(=O)c3cc(C(F)(F)F)ccc3Cl)cc2)cc1` [Compound 207], the EC50 (Mus musculus) is reported as 10 µM, the Score (Table 12 compound data) is reported as 42 and the “Fit Curve Class” value (curve class number) is reported as 2.2. The “Fit HillSlope” value (curve fit) was 2.5334 and the “Fit Zero Activity [%]” value [3] was 0.1699%.
